Test results reported in publication PMC7076710, “Synthesis, Identification, and Structure–Activity Relationship Analysis of GATA4 and NKX2-5 Protein–Protein Interaction Modulators” (Journal of Medicinal Chemistry, 2019).
Read-outs that look alike come from different tables or passages of the source.

How the values were obtained:
Format in all cases: cell-based
[1] = molecular target: T1, GATA4–NKX2-5 transcriptional synergy (Mus musculus, UniProt P42582+Q08369); test: GATA4–NKX2-5 transcriptional synergy luciferase reporter assay (3xNKE reporter, COS-1 cells); settings: COS-1, luciferase reporter activity relative to control
T1 construct: expressed in transfected cells; host or cells: COS-1
T1 sequence (Q08369 whole entry): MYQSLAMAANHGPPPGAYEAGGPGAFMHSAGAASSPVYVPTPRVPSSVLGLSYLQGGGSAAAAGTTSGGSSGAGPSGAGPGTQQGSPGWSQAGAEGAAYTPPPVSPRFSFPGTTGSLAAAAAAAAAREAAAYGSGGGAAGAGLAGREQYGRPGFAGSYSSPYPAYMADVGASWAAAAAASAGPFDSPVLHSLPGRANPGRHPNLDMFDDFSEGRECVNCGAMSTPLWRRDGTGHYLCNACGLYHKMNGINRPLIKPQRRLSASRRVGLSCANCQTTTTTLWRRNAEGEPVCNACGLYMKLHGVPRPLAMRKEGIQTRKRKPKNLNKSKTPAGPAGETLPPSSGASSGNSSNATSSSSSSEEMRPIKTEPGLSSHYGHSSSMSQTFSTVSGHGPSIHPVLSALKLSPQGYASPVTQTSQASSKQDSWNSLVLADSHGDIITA
T1 sequence (P42582 whole entry): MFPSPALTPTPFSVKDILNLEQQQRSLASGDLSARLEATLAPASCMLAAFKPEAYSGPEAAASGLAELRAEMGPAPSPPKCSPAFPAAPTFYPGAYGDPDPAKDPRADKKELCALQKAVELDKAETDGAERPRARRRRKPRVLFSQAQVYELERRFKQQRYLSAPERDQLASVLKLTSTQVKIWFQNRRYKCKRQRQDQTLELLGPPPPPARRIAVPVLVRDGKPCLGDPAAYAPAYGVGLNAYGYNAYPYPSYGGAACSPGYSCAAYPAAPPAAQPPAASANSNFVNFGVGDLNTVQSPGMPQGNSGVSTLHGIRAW

[2] = molecular target: T2, NKX2-5 transcriptional activity (Mus musculus, UniProt P42582); test: NKX2-5 luciferase reporter assay (3xNKE reporter, COS-1 cells); settings: COS-1, luciferase reporter activity relative to control; for activity at 3 µM: read-out: NKX.3µM; for activity at 10 µM: read-out: NKX.10µM
T2 construct: expressed in transfected cells; host or cells: COS-1
T2 sequence (P42582 whole entry): as above

[3] = molecular target: T3, GATA4 transcriptional activity (Mus musculus, UniProt Q08369); test: GATA4 luciferase reporter assay (tandem GATA-site reporter, COS-1 cells); settings: COS-1, luciferase reporter activity relative to control
T3 construct: expressed in transfected cells; host or cells: COS-1
T3 sequence (Q08369 whole entry): as the sequence (Q08369 whole entry) above

[4] = tested on: rat BNP promoter activity in neonatal rat ventricular myocytes; test: BNP promoter luciferase reporter in neonatal cardiomyocytes with or without endothelin-1
Method: Five compounds (GATA4–NKX2-5 synergy inhibitors 1, 61, and 65; the synergy activator 2; and the NKX2-5 activity inhibitor 47c) were selected for studies in neonatal cardiomyocytes, which were treated with endothelin-1 (ET-1), a well-established hypertrophic agonist that activates the gene expression of both ANP and BNP (Figure 4). The myocytes were transfected with construct containing −534/+4 proximal region of rat BNP promoter with GATA4 and NKX2-5 binding sites in front of luciferase before exposure to compounds and ET-1, which was added 1 h after the compounds.
Figure 4 Effects of the compounds 1, 2, 47c, 61, and 65 on BNP gene activation in cardiomyocytes. Neonatal cardiomyocytes were transfected with rat BNP luciferase reporter for 24 h. The cells were exposed to compounds and 1 h later to endothelin-1 (ET-1) for 24 h. The results are expressed as +SD (n = 3 or 9 for DMSO groups). ***P < 0.001 vs DMSO; **P < 0.01 vs DMSO; *P < 0.05 vs DMSO (one-way ANOVA followed by Tukey’s HSD or Welch ANOVA followed by Games–Howell); ^###P < 0.001 vs DMSO, no stimulus (independent samples Student’s t test).
The plasmids expressing mouse GATA4 protein, pMT2-GATA4, and empty pMT2 were gifts from D. B. Wilson (Department of Pediatrics, St. Louis Children’s Hospital, St. Louis, MO).[44] The plasmids expressing mouse NKX2-5 protein, pMT2-NKX2-5, have been described earlier.[28] The luciferase reporter plasmid used in GATA4–NKX2-5 transcriptional synergy assay and NKX transcriptional assay, pGL3-3xHA, contains three high affinity binding sites for NKX2-5.[28] The luciferase reporter plasmid used in GATA transcriptional assay, NP-112, contains tandem GATA-sites and minimal promoter of rat brain natriuretic peptide (BNP) gene.[45] The pGL3-BNP luciferase reporter containing −534/+4 bp rat BNP proximal promoter described previously was used in hypertrophy assay.[46]
The neonatal rat ventricular myocytes were isolated from 2- to 3-day-old Wistar rats, as described earlier.[29],[32] Rat pups were acquired from the experimental animal facility of the University of Helsinki with an internal use license (KEK17-012). Animals were housed in standard conditions, and their handling and all procedures were carried out in accordance with University of Helsinki institutional guidelines, which conform to the National Research Council (U.S.) Guide for the Care and Use of Laboratory Animals.[47] The cells were seeded at 50 000 cells/well in Isoplate-96 microplates (PerkinElmer, Turku, Finland) and cultured for 18–20 h with Dulbecco’s modified Eagle medium (DMEM)/F12 culture medium containing 2.5 mM L-glutamine, supplemented with 100 IU/mL penicillin–streptomycin and 10% fetal bovine serum (all from Gibco, Thermo Scientific). Transfections were carried out for 24 h in serum free media (CSFM; DMEM/F12, 2.5 mg/mL bovine serum albumin, 1 μM insulin, 2.5 mM L-glutamine, 32 nM selenium, 2.8 mM sodium pyruvate, 5.64 μg/mL transferrin, 1 nM T3, and 100 IU/mL PS) by using 100 ng of pGL3-BNP luciferase plasmid per well in a 1:3 ratio of DNA/transfection reagent (Fugene 6, Promega). […] After 24 h, the luminescence was measured as above.
Results from cardiomyocyte experiments are expressed as mean + SD from at least three independent experiments. Data were analyzed using IBM SPSS Statistics 24 software. […] Significance between ET-1 and DMSO samples was analyzed with independent samples Student’s t test. […]

[5] = tested on: COS-1 cells; test: LDH assay (necrosis)
[6] = tested on: COS-1 cells; test: MTT assay (cell viability); settings: cell viability

| SMILES | activity at 3 µM ([1]; 3 µM) [%] | activity at 10 µM ([1]; 10 µM) [%] | activity at 3 µM ([2]; 3 µM) [%] | activity at 10 µM ([2]; 10 µM) [%] | activity at 3 µM ([3]; 3 µM) [%] | activity at 10 µM ([3]; 10 µM) [%] | LDH.1µM [5] | LDH.3µM [5] | LDH.10µM [5] | LDH.30µM [5] | MTT.1µM [6] | MTT.3µM [6] | MTT.10µM [6] | MTT.30µM [6] | other results |
| --- | --- | --- | --- | --- | --- | --- | --- | --- | --- | --- | --- | --- | --- | --- | --- |
| CCN(c1ccc(NC(=O)c2cnsc2)cc1)C(C)C [Compound 61] |  |  |  |  |  |  |  |  |  |  |  |  |  |  | activity at 3 µM ([1]; compound 3 µM): 28.8%; activity at 10 µM ([1]; compound 10 µM): 11.6%; activity at 3 µM ([2]; compound 3 µM): 38.2%; activity at 10 µM ([2]; compound 10 µM): 10.7%; activity at 3 µM ([3]; compound 3 µM): 71.1%; activity at 10 µM ([3]; compound 10 µM): 20.4%; inhibition of the ET-1 hypertrophic response, BNP gene activity (in words) ([4]; 30 μM, ET-1 added 1 h after compound): the most potent inhibitor of the hypertrophic response; effect on BNP promoter activity in cardiomyocytes (in words) ([4]; neonatal cardiomyocytes, 24 h): most strongly inhibited the BNP promoter activity |
| CC[N+](O)(CC)c1ccc(NC(=O)c2c(-c3ccccc3)noc2C)cc1 [SI4] | 101 | 93.6 | 118 | 99.9 | 87.2 | 86.9 | 3.36 | 1.95 | 1 | -1.21 | 104.81 | 107.68 | 104.23 | 95.62 |  |
| Cc1onc(-c2ccccc2)c1C(=O)Nc1ccc(OCc2ccccc2)cc1 [SI8] | 86.4 | 71.9 | 84.9 | 72.2 | 104 | 83.8 | -0.14 | 2.05 | -0.31 | 1.97 | 105.45 | 102.65 | 100.93 | 59.22 |  |
| CCN(CC)c1ccc(/C=N/c2c(-c3ccccc3)noc2C)c(O)c1 [SI44] | 84.8 | 53.2 | 99.9 | 53.9 | 107 | 74.1 | 2.83 | 1.4 | -0.96 | 0.36 | 105.22 | 100.5 | 90.69 | 89.22 |  |
| CCCn1nnc(-c2ccccc2)c1C(=O)Nc1ccc(N(CC)CC)cc1 [SI65] | 104 | 96.1 | 115 | 91.1 | 113 | 97.4 | 2.51 | 1.17 | 1.55 | 2.48 | 101.13 | 112.84 | 109.58 | 105.89 |  |
